Where a name gives a salt, the structure may show the parent alone.
Target: T1, DβH (Homo sapiens, UniProt P09172)
T1 construct: 125 μL of plasma (or saline for blank reaction or standard curve); tissue Instituto Português do Sangue Transplantação, Centro Sangue Transplantação, Porto, Portugal; host or cells: human plasma from healthy donors
T1 sequence (P09172 40-617 limits assumed): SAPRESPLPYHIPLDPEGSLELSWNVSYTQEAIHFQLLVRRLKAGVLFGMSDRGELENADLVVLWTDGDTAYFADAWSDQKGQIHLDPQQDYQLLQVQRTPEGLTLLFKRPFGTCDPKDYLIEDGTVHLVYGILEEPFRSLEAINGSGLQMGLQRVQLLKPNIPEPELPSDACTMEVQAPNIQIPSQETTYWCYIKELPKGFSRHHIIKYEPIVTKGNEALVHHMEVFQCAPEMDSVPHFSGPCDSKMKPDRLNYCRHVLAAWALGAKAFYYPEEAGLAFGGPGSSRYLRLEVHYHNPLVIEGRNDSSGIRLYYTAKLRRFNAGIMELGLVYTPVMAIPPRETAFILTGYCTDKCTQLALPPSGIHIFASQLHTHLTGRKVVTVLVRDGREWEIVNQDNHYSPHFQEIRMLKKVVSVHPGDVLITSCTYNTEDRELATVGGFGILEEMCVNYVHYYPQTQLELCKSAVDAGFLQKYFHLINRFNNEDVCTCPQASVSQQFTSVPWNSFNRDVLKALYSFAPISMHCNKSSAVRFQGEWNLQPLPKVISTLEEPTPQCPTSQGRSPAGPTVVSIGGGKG
Experiment: Dopamine-β-hydroxylase inhibition assay in human plasma
Format: biochemical
Conditions: for remaining activity at 0.01 µM / DβH (0.01 μM): DβH activity in human plasma at 0.01 μM inhibitor; for remaining activity at 0.1 µM / DβH (0.1 μM): DβH activity in human plasma at 0.1 μM inhibitor; for IC50: human plasma, curve fitting of 6 concentrations (100 nM to 0.3 nM)
Protocol: The ability of a compound to inhibit DβH activity may be assessed in human plasma using the following assay.
Dopamine beta hydroxylase activity in human plasma was measured by the method of Nagatsu and Udenfriend (Nagatsu, T. and Udenfriend, S. “Photometric assay of dopamine-p-hydroxylase activity in human blood.” Clin. Chem. 18(9) 980-983, 1972) with minor modifications. Catalase, N-ethylmaleimide, tyramine, disodium fumarate, pargyline, sodium acetate, ascorbic acid, copper sulfate and octopamine were obtained from Sigma Chemical Co., St. Louis, Mo. 63178. Human plasma samples were obtained from healthy donors (Instituto Português do Sangue Transplantação, Centro Sangue Transplantação, Porto, Portugal). From date of collection, plasma was stored at −80° C. until use. Test compounds were initially prepared in dimethyl sulfoxide at a concentration of 10 mM and diluted in dimethyl sulfoxide to the required concentrations. Test compounds were further diluted in ultrapure water to a concentration 20-fold to that of the final concentration to be tested. Final concentrations of test compounds were 10 and 100 nM. The various reagents used to make up the incubation buffer were premixed and consisted of the following components: sodium acetate buffer (1 M, pH 5.0, 18 mL), sodium fumarate (0.2 M, 4.5 mL), ascorbic acid (0.2 M, 4.5 ml, freshly prepared), pargyline (20 mM, freshly prepared, 4.5 mL), N-ethylmaleimide (0.2 M, 4.5 mL), catalase (10 000 U/mL, 9 mL), copper sulfate (20 μM, 4.5 mL) and 4.5 ultrapure water. The standard incubation mixture (total volume, 950 μL) contained: 50 μL of compound or vehicle (dimethyl sulfoxide 2%); 700 μL of incubation buffer; 125 μL of plasma (or saline for blank reaction or standard curve); 75 μL of saline. The reaction mixture was placed in water bath, shaking at 37° C. and pre-incubated for 10 minutes. Tyramine (0.5 M) was added and incubation proceeded for 45 minutes. The reaction contents were exposed to air. A sample of enzyme preparation (with 125 μL of plasma) that had been added perchloric acid 2 M at the end of the pre-incubation period was used as blank. A blank for each of the tested compounds was used. For octopamine standard curve, perchloric acid 2 M was replaced by increasing concentrations of octopamine prepared in perchloric acid 2 M (0.5, 1, 2.5, 5, 7.5, 10, 15, 20 μg/mL, final concentration). The incubation was stopped by adding 200 μL of 2 M molar perchloric acid, and the mixture was centrifuged at 9000 g for 5 min. The supernatant fluid (800 μL) was transferred to a column (SPE cartridge ISOLUTE SCX-3, 100 mg) and centrifuged at 150 g for 2 min. The column was washed two more times with 0.5 ml of ultrapure water by centrifuging at 150 g for 2 min. The adsorbed octopamine was eluted twice with 0.3 mL of 4 M ammonium hydroxide by centrifuging at 150 g for 2 min. Octopamine in the eluate was then converted to p-hydroxybenzaldehyde by adding 200 μL of sodium periodate (2%) and incubating for 6 min. Excess periodate was than reduced by adding 200 μL of sodium metabisulfite (10%). Absorbance was measured at […] in a 96-well plate by use of a SpectraMAX plus 384 (Molecular Devices) with software SOFTmax® PRO Software 5.3 spectrophotometer. Absorbance was linear with octopamine concentration from 0.5 to 20 μg/mL. Dopamine beta hydroxylase activity is determined as nmol of octopamine formed/mL of plasma/hour and effect of compounds is presented as % control. Results are reported in the table below as activity in % of control at the inhibitor concentration tested.
IC50 values of selected compounds were calculated based on curve fitting of results of 6 different compound concentrations (100 nM to 0.3 nM). IC50 data are reported in nM concentration.

Row | Structure (SMILES) | remaining activity at 0.01 µM | remaining activity at 0.1 µM | IC50 | DβH (0.01 μM) | DβH (0.1 μM)
1 | Fc1ccc(F)c([C@H]2Cc3c(CCCN4CCOCC4)[nH]c(=S)n3C2)c1F [Example 6, (R)-1-(3-morpholinopropyl)-6-(2,3,6-trifluorophenyl)-2,5,6,7-tetrahydro-3H-pyrrolo[1,2-c]imidazole-3-thione] | 63.6% | 10.4% | 11.6 nM | – | –
2 | CN(CCCc1[nH]c(=S)n2c1C[C@H](c1c(F)ccc(F)c1F)C2)C1CCOCC1.Cl [Example 14, (R)-1-(3-(methyl(tetrahydro-2H-pyran-4-yl)amino)propyl)-6-(2,3,6-trifluorophenyl)-2,5,6,7-tetrahydro-3H-pyrrolo[1,2-c]imidazole-3-thione hydrochloride] | – | – | 33.1 nM | 73.2 % of Control | 19.0 % of Control
3 | CN(CCCc1[nH]c(=S)n2c1C[C@H](c1c(F)ccc(F)c1F)C2)C1CCOCC1 [Example 12, (R)-1-(3-(methyl(tetrahydro-2H-pyran-4-yl)amino)propyl)-6-(2,3,6-trifluorophenyl)-2,5,6,7-tetrahydro-3H-pyrrolo[1,2-c]imidazole-3-thione] | 71.2% | 18.9% | 20.9 nM | – | –
4 | Fc1ccc(Cl)cc1[C@]12C[C@H]1c1c(CCCN3CCCC3)[nH]c(=S)n1C2 [Example 20, (5aS,6aR)-5a-(5-chloro-2-fluorophenyl)-1-(3-(pyrrolidin-1-yl)propyl)-5,5a,6,6a-tetrahydrocyclopropa[3,4]pyrrolo[1,2-c]imidazole-3(2H)-thione] | 53.4% | 9.1% | 9.8 nM | – | –
5 | CN(CCCc1[nH]c(=S)n2c1C[C@H](c1c(F)ccc(F)c1F)C2)C1CCOC1 (stereo partly drawn) [Example 13, (6R)-1-(3-(methyl(tetrahydrofuran-3-yl)amino)propyl)-6-(2,3,6-trifluorophenyl)-2,5,6,7-tetrahydro-3H-pyrrolo[1,2-c]imidazole-3-thione hydrochloride] | 69.9% | 29.3% | 22.2 nM | – | –
6 | Fc1ccc(Cl)cc1[C@]12C[C@H]1c1c(CCCNC3CCOCC3)[nH]c(=S)n1C2 [Example 17, (5aS,6aR)-5a-(5-chloro-2-fluorophenyl)-1-(3-((tetrahydro-2H-pyran-4-yl)amino)propyl)-5,5a,6,6a-tetrahydrocyclopropa[3,4]pyrrolo[1,2-c]imidazole-3(2H)-thione] | 41.8% | 3.9% | 9.9 nM | – | –
7 | Fc1ccc(F)c([C@H]2Cc3c(CCCN[C@H]4CCCOC4)[nH]c(=S)n3C2)c1F [Example 9, (R)-1-(3-(((S)-tetrahydro-2H-pyran-3-yl)amino)propyl)-6-(2,3,6-trifluorophenyl)-2,5,6,7-tetrahydro-3H-pyrrolo[1,2-c]imidazole-3-thione] | 48.1% | 12.2% | 19.1 nM | – | –
8 | NCCCc1[nH]c(=S)n2c1C[C@H](c1c(F)ccc(F)c1F)C2 [Example 2, (R)-1-(3-aminopropyl)-6-(2,3,6-trifluorophenyl)-2,5,6,7-tetrahydro-3H-pyrrolo[1,2-c]imidazole-3-thione] | 98.4% | 66.6% | – | – | –
9 | Fc1ccc(F)c([C@H]2Cc3c(CCCNC4CCOCC4)[nH]c(=S)n3C2)c1F [Example 5, (R)-1-(3-((tetrahydro-2H-pyran-4-yl)amino)propyl)-6-(2,3,6-trifluorophenyl)-2,5,6,7-tetrahydro-3H-pyrrolo[1,2-c]imidazole-3-thione] | 42.5% | 5.4% | 12.7 nM | – | –
10 | CN(C)CCCc1[nH]c(=S)n2c1C[C@H](c1c(F)ccc(F)c1F)C2.Cl [Example 10, (R)-1-(3-(dimethylamino)propyl)-6-(2,3,6-trifluorophenyl)-2,5,6,7-tetrahydro-3H-pyrrolo[1,2-c]imidazole-3-thione hydrochloride] | – | – | – | 86.2 % of Control | 45.8 % of Control

Further molecules by falling IC50, results first:

Row | remaining activity at 0.01 µM | remaining activity at 0.1 µM | IC50 | DβH (0.01 μM) | DβH (0.1 μM) | Structure (SMILES)
11 | 57.3% | 15.5% | 9.5 nM | – | – | Fc1ccc(F)c([C@H]2Cc3c(CCCNCC4CCOCC4)[nH]c(=S)n3C2)c1F [Example 3, (R)-1-(3-(((tetrahydro-2H-pyran-4-yl)methyl)amino)propyl)-6-(2,3,6-trifluorophenyl)-2,5,6,7-tetrahydro-3H-pyrrolo[1,2-c]imidazole-3-thione]
12 | 42.5% | – | 8.3 nM | – | 3.0 % of Control | Cl.Fc1ccc(F)c([C@H]2Cc3c(CCCN4CC[C@@H](F)C4)[nH]c(=S)n3C2)c1F [Example 7, (R)-1-(3-((R)-3-fluoropyrrolidin-1-yl)propyl)-6-(2,3,6-trifluorophenyl)-2,5,6,7-tetrahydro-3H-pyrrolo[1,2-c]imidazole-3-thione hydrochloride]
13 | – | – | 7.2 nM | 40.6 % of Control | 7.7 % of Control | Fc1ccc(F)c([C@H]2Cc3c(CCCN4CC[C@@H](F)C4)[nH]c(=S)n3C2)c1F [Example 11, (R)-1-(3-((R)-3-fluoropyrrolidin-1-yl)propyl)-6-(2,3,6-trifluorophenyl)-2,5,6,7-tetrahydro-3H-pyrrolo[1,2-c]imidazole-3-thione]
14 | 23.5% | 3.5% | 4 nM | – | – | Fc1ccc(Cl)c(F)c1[C@]12C[C@H]1c1c(CCCN[C@H]3CCCOC3)[nH]c(=S)n1C2 [Example 22, (5aS,6aR)-5a-(3-chloro-2,6-difluorophenyl)-1-(3-(((S)-tetrahydro-2H-pyran-3-yl)amino)propyl)-5,5a,6,6a-tetrahydrocyclopropa[3,4]pyrrolo[1,2-c]imidazole-3(2H)-thione]
15 | 17% | 1% | 3 nM | – | – | Fc1ccc(Cl)c(F)c1[C@]12C[C@H]1c1c(CCCN3CCCC3)[nH]c(=S)n1C2 [Example 19, (5aS,6aR)-5a-(3-chloro-2,6-difluorophenyl)-1-(3-(pyrrolidin-1-yl)propyl)-5,5a,6,6a-tetrahydrocyclopropa[3,4]pyrrolo[1,2-c]imidazole-3(2H)-thione]
16 | 13.6% | 1% | 2.7 nM | – | – | Fc1ccc(Cl)c(F)c1[C@]12C[C@H]1c1c(CCCN3CCOCC3)[nH]c(=S)n1C2 [Example 15, (5aS,6aR)-5a-(3-chloro-2,6-difluorophenyl)-1-(3-morpholinopropyl)-5,5a,6,6a-tetrahydrocyclopropa[3,4]pyrrolo[1,2-c]imidazole-3(2H)-thione hydrochloride]
